In brackets after ≈: the same amount, converted by molar mass. Where a SMILES comes first, the peptide text is derived from it. [ ]: non-standard residue; d: D form. The star is where a group is joined. dPhe(3,5-F2) = N[C@H](Cc1cc(F)cc(F)c1)C(=O)O; dPhe(3-Me) = Cc1cccc(C[C@@H](N)C(=O)O)c1; For = O=C*
Key:
CNS KORs = CNS KORs (Mus musculus, UniProt P33534); experiment: 55 °C WWTW assay, antagonism of centrally administered U50,488 (30 nmol, i.c.v.); settings: 2.5 h pretreatment; for antagonism of CNS KORs: 30 mg/kg, p.o. (9: 10 mg/kg, p.o.)
[1] = Kinetic aqueous solubility; assay type: physicochemical; settings: 1% DMSO, pH 7.4
Description: Table A1 Stability of [D-Trp]- and [D-Phe^4]CJ-15,208 and selected analogs in human (HLMs) and mouse liver microsomes (MLMs)^1. and kinetic aqueous solubility. | column: Solubility ^2 / (µM)

C57BL/6J mice [2] = experiment: 55 °C warm-water tail-withdrawal assay, antinociception; assay type: in vivo, mouse; settings: p.o. dose response; significant only first 10 min at high doses
Description: For intracerebroventricular administration, peptides were dissolved in DMSO at a concentration of 20 mM (100 nmol/5 µL), then diluted to test doses in a final vehicle solution of 50%DMSO/50% saline (0.9%). For all other testing (for oral administration), peptides were made fresh each day for testing in a final vehicle solution of 10% DMSO/10% Solutol/80% saline (0.9%).
Intracerebroventricular injections were made directly into the lateral ventricle according to the modified steps detailed previously. The volume of all i.c.v. injections was 5 μL, using a 10 μL Hamilton microliter syringe. The mouse was lightly anesthetized with isoflurane, an incision was made in the scalp, and the injection was made 2 mm lateral and 2 mm caudal to bregma at a depth of 3 mm.
The dose response of analogs 3, 6, 9 and 14 were also assessed following administration of one of up to four additional oral (p.o.) doses (1–30 mg/kg).

DOR = DOR (Mus musculus, UniProt P32300); experiment: 55 °C WWTW assay, antagonism of the DOR-selective agonist SNC80; settings: 3 or 4 30 mg/kg, p.o., 9 10 mg/kg, 2.5 h before SNC-80 100 nmol, i.c.v.
human MOR = target: T1, human MOR (Homo sapiens, UniProt P35372); experiment: biochemical; assay type: binding; settings: [3H]DAMGO, human MOR; ± S.E.M., three independent experiments; read-out: MOR Ki
T1 construct: expressed in transfected cells

MOR = MOR (Mus musculus, UniProt P42866); experiment: 55 °C WWTW assay, antagonism of the MOR-preferring agonist morphine; settings: 3 or 4 30 mg/kg, p.o., 9 10 mg/kg, 2.5 h before morphine 10 mg/kg, i.p.
hKOR [3] = target: T2, hKOR (Homo sapiens, UniProt P41145); experiment: Competition binding, [3H]U69,593, hKOR-CHO membranes; settings: for Ki: [3H]U69,593, human KOR, ± S.E.M., three independent experiments, read-out: KOR Ki
C57BL/6J mice [4] = experiment: Stress-induced reinstatement of extinguished cocaine conditioned place preference; settings: for fold lower dose for significant reduction of stress-induced reinstatement than [D-Trp]CJ-15,208: vs 60 mg/kg
hKOR [5] = target: T2, hKOR; experiment: KOR cAMP assay using GloSensor-22F, antagonist mode (vs 10 nM U50,488); assay type: cell-based
Description: A piggy-Bac (PB) transposon/transposase system was utilized to allow for the stable integration of the GloSensor-22F cAMP sensor (Promega, Madison, WI, USA) gene into genomic TTAA sites in Chinese hamster ovary cells already stably expressing the hKOR. The pFastBac hyperPB plasmid vector, which codes for the piggy-Bac transposon/transposase system, was utilized and was a kind gift from Dr. John Lueck. The multicistronic expression cassette developed for our experiments consisted of a CMV promoter driving constitutive expression of GloSensor-22F cAMP sensor, followed by an internal ribosome entry site (IRES) to drive the expression of codon-optimized HygR-P2A-mScarlet (hygromycin resistance gene and mScarlet separated by a 2A self-cleaving peptide element). To clone the expression cassette onto the pFastBac vector, the CMV promoter and GloSensor-22F were PCR amplified from pGloSensor-22F cAMP Plasmid (Promega), the IRES sequence was PCR amplified from pLVX-CMV-Galpha-oA ONE-GO (a gift from Dr. Mikel Garcia-Marcos, Addgene plasmid #189732), the HygR-P2A-mScarlet sequence was a kind gift from Dr. Lueck, and a bGH-poly(A) termination sequence was PCR amplified from pcDNA3.1(+). The pFastBac vector was linearized via overnight digestion with CspCI at 37 °C, which cuts between two inverted terminal repeat (ITR) sequences, and the corresponding backbone and all PCR fragments were gel purified and assembled via Gibson assembly using the Gibson Assembly MasterMix (New England Biolabs, Ipswich, MA, USA). The resulting pFastBac CMV GloSensor-22F IRES HygR-P2A-mScarlet bGH plasmid was transformed into NEB Stable Competent E. coli (New England Biolabs), miniprepped using the E.Z.N.A. Plasmid DNA Mini Kit (Omega Bio-Tek, Norcross, GA, USA), and sequence verified by nanopore whole-plasmid sequencing (Eurofins Genomics, Louisville, KY, USA).
3.0 × 10^6 hKOR-CHO cells were plated on a 6 cm dish and incubated for four h at 37 °C and 5% CO2 in DMEM (Corning Mediatech, Manassas, VA, USA) supplemented with 5% FBS (Corning Mediatech), 1% Penicillin/Streptomycin (Gibco, Waltham, MA, USA). The cells were then transfected with 2.0 μg pFastBac CMV GloSensor-22F IRES HygR-P2A-mScarlet bGH using PEI as a transfection reagent. The following day, transfected cells were reseeded onto a 10 cm dish at a density of 5.0 × 10^5 cells and 600 μg/mL hygromycin B (Gold Bio, St. Louis, MO, USA) was added to the culture media. Cells were cultured under selection antibiotics for seven days, and the selection process was monitored by the increase in abundance of mScarlet positive cells via epifluorescence microscopy.
Following the selection period, KOR-CHO-GLO cells were maintained at 37 °C and 5% CO2 in DMEM supplemented with 5% FBS, 1% Penicillin/Streptomycin and 300 μg/mL hygromycin B to reduce the likelihood of CMV promoter silencing. On the day of the assay, cells were detached with 0.05% trypsin (Gibco) and counted, then centrifuged (1000× g, 5 min) and resuspended in assay buffer (1xPBS, 0.1% glucose, 0.5 mM MgCl2) containing 4 mM D-luciferin substrate (Gold Bio) at approximately 2 million cells/mL. 25 μL of cells (~50,000/well) were seeded onto poly L-lysine-coated white 96-well flat bottom plates (Greiner Bio-One, Kremsmünster, Austria)) and returned to the incubator for 60 min. Following incubation, cells were allowed to equilibrate to room temperature protected from light (10–15 min). Initial luminescence readings (at least 10 cycles) were collected for each well using a FLUOstar Omega v.6.2 plate reader (BMG Labtech, Ortenberg, Germany), after which the plate was removed. Prepared 4x treatments of drug (25 μL) were added to appropriate wells followed by 50 μL of 20 μM forskolin (AmBeed, Buffalo Grove, IL, USA) before the plate was returned to the reader and luminescence measured until final plateau levels were achieved (20–30 min). Assays were performed in duplicate and repeated at least three times.

hKOR [6] = target: T2, hKOR; experiment: KOR cAMP assay using GloSensor-22F, agonist mode (KOR-CHO-GLO cells); assay type: cell-based; settings: read-out: KOR Efficacy (%)
[7] = Metabolic stability in human liver microsomes; assay type: in vitro ADME; settings: 1 mg protein/mL; for half-life at 1 µM / microsomal CLint at 1 µM: human liver microsomes
Description: (§1) Evaluation of the metabolic stability of the macrocyclic tetrapeptides by human and mouse liver microsomes was performed by Curia Global (Buffalo, NY, USA). […]

[8] = Metabolic stability in mouse liver microsomes; assay type: in vitro ADME; settings: 1 mg protein/mL; for half-life at 1 µM / microsomal CLint at 1 µM: mouse liver microsomes
Description: as §1

[9] = p.o. once daily for two days, 1.5 h prior to FSS
[10] = 1 µM compound, 37 °C, read-out: HLM t1/2
[11] = 1 µM compound, 37 °C, read-out: MLM t1/2

Row | SMILES | doses not producing significant antagonism of CNS KORs (CNS KORs) | antagonism of CNS KORs (CNS KORs) | solubility kinetic [1] [µM] | antinociception (C57BL/6J mice [2]) [%] | effect on antinociceptive effects of SNC80 (DOR) | Ki (human MOR) [µM] | effect on antinociceptive effects of morphine (MOR) | Selectivity (MOR Ki/KOR Ki) (hKOR [3]) | Ki (hKOR [3]) [µM] | doses not preventing stress-induced reinstatement of cocaine CPP (C57BL/6J mice [4]; [9]) [mg/kg] | fold lower dose for significant reduction of stress-induced reinstatement than [D-Trp]CJ-15,208 (C57BL/6J mice [4]; p.o.) [fold] | IC50 (hKOR [5]) [µM] | Emax at 10 µM (hKOR [6]) [%] | half-life at 1 µM [7, 10] [min] | microsomal CLint at 1 µM ([7]; read-out: HLM CLint) [µL/min/mg] | half-life at 1 µM [8, 11] [min] | microsomal CLint at 1 µM ([8]; read-out: MLM CLint) [µL/min/mg] | also measured
1 | O=C1N[C@H](Cc2ccccc2)C(=O)N[C@@H](Cc2ccccc2)C(=O)N2CCC[C@@H]2C(=O)N[C@H]1Cc1ccccc1 [Analog 4, cyclo[Phe-D-Pro-Phe-D-Phe]] (cyclo(F[dP]F[dF])) | 3 mg/kg, p.o. | significant antagonism | 24 (≈ 12.9 µg/mL) | < 20 | no significant effect | 0.27 ± 0.023 | no significant effect | 11 | 0.024 ± 0.00097 | 3 | 6 | 0.46 ± 0.1 | 19 ± 8.1 | 4.2 | 165 | 1.6 | 447 | fold lower KOR affinity than [D-Trp]CJ-15,208 (1) (hKOR [3]): 3.5 fold
2 | O=Cn1cc(C[C@H]2NC(=O)[C@H](Cc3ccccc3)NC(=O)[C@H]3CCCN3C(=O)[C@H](Cc3ccccc3)NC2=O)c2ccccc21 [Analog 3, [D-Trp(formamide)]CJ-15,208] (cyclo(F[dP]F[dW](For))) | 1–10 mg/kg, p.o. | significant antagonism | 4.6 (≈ 2.79 µg/mL) | < 20 | no significant effect | 0.09 ± 0.014 | no significant effect | 41 | 0.0022 ± 0.00015 | 10 | 2 | 0.049 ± 0.0054 | 9.2 ± 4.9 | 2.8 | 244 | 1.1 | 607 | doses giving significant antagonism of CNS KORs (CNS KORs): 30 mg/kg, p.o.; doses preventing stress-induced reinstatement of cocaine CPP (C57BL/6J mice [4]; [9]): 30 mg/kg
3 | O=C1N[C@H](Cc2cc(F)cc(F)c2)C(=O)N[C@@H](Cc2ccccc2)C(=O)N2CCC[C@@H]2C(=O)N[C@H]1Cc1ccccc1 [Analog 9, [D-Phe(3,5-F2)^4]CJ-15,208] (cyclo(F[dP]F[dPhe(3,5-F2)])) |  | significant antagonism | 8.6 (≈ 4.94 µg/mL) | < 20 | no significant effect | 0.29 ± 0.027 | no significant effect | 12 | 0.025 ± 0.0043 |  |  | 0.32 ± 0.049 | 14 ± 2.4 | 2.9 | 237 | 1.2 | 600 | reduction of stress-induced reinstatement of cocaine CPP (C57BL/6J mice [4]; 10 mg/kg, p.o.): not significant
4 | Cc1cccc(C[C@H]2NC(=O)[C@H](Cc3ccccc3)NC(=O)[C@H]3CCCN3C(=O)[C@H](Cc3ccccc3)NC2=O)c1 [Analog 14, [D-Phe(m-Me)^4]CJ-15,208] (cyclo(F[dP]F[dPhe(3-Me)])) |  | ineffective | 19 (≈ 10.5 µg/mL) | < 20 |  | 0.13 ± 0.011 |  | 5 | 0.026 ± 0.003 |  |  | 0.32 ± 0.067 | 0.74 ± 5.7 |  |  |  |  | half-life ([7]; microsomes, 1 µM compound, 37 °C, read-out: HLM t1/2): 4.1 min; microsomal CLint ([7]; microsomes, read-out: HLM CLint): 170 µL/min/mg; half-life ([8]; microsomes, 1 µM compound, 37 °C, read-out: MLM t1/2): 1.5 min; microsomal CLint ([8]; microsomes, read-out: MLM CLint): 467 µL/min/mg
